From US12065427B2, “Heterocyclic compounds capable of activating STING” (BOEHRINGER INGELHEIM INTERNATIONAL GMBH, priority 2021, dated 2024)
In brackets after ≈: the same amount, converted by molar mass.

Assays:
[1] = system: Human STING (hSTING, residues 155-341); experiment: Interaction with hSTING as determined by Differential Scanning Fluorimetry (DSF); format: binding; settings: 100 μM test compounds, 5 μM target protein
Summary of the method: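 Thermal shift of hSTING (residues 155-341, 5 μM) with test compounds at 100 μM in 20 mM Tris, 150 mM NaCl, pH 7.5, using 5× SYPRO Orange. Ramped 25 to 95 °C at 0.5 °C per cycle (15 s/cycle) by real-time PCR fluorescence. Tm from duplicate melting curves, averaged.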

[2] = Solubility measurements (HTS) at pH 6.8; format: physicochemical; settings: kinetic from dmso stock; aqueous McIlvaine buffer pH 6.8, 24 h at room temperature, from 10 mM DMSO stock; read-out: Soblubility
Procedure: Aqueous solubilities were determined from 10 mM stock solutions of the compounds in DMSO diluted to a final concentration of 250 μM with aqueous McIlvaine buffer at pH 6.8, or with acetonitrile/water (1:1) as a reference. Samples were shaken for 24 h at room temperature in 96-well plates (Whatman Uniplate® 96 wells, 750 μL, polypropylene, round bottom). The plate was then centrifuged at 3,000 rpm for 2 min. 250 μL of each sample were transferred to a Millipore MultiScreenHTS filter plate with a polycarbonate membrane, pore size 0.45 μm. Filtrates were collected by centrifugation at 3,000 rpm for 2 min. The dissolved concentrations were determined by UPLC/UV (Ultra-Performance Liquid Chromatography/ultraviolet) on a Waters ACQUITY UPLC® SQD system equipped with a Waters ACQUITY UPLC® BEH 2.1×50 mm C18 column, particle size 1.7 μm, using a short gradient with water/0.1% formic acid as solvent A and acetonitrile/0.1% formic acid as solvent B (5 to 95% B with 1.7 min total cycle time). Compounds signals were measured with a photodiode array UV detector operated at 254 nm. Solubilities were determined with a one point calibration by comparing peak areas relative to the reference standard using Waters Empower software.

STING HAQ-variant = biological target: T1, STING HAQ-variant (Homo sapiens, UniProt Q86WV6, G230A/H232R/R293Q/R71H); experiment: IRF-inducible SEAP reporter assay in THP1-Blue ISG cells, STING HAQ-variant; format: cell-based; settings: STING HAQ-variant (parental or re-introduced), 24 hours incubation
T1 construct: parental THP1-Blue™ ISG cell lines (which express endogenously HAQ); host or cells: THP1-Blue ISG (parental, endogenous HAQ) or STING-KO clone re-transduced with HAQ (MSCV-ires-GFP-Blasti)
T1 sequence (Q86WV6 whole entry R71H/G230A/H232R/R293Q): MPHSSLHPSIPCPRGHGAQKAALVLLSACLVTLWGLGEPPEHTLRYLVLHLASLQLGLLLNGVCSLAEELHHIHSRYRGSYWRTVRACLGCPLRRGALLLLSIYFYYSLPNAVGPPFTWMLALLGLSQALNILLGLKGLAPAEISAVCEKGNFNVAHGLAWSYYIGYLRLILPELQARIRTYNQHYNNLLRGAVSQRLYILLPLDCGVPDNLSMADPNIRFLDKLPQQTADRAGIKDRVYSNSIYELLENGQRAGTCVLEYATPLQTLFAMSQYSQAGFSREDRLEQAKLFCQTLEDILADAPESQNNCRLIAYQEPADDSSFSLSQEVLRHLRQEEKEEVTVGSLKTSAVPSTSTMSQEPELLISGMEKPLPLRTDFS
Summary of the method: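 THP1-Blue ISG cells expressing STING HAQ, either endogenously (parental) or re-introduced after CRISPR knockout, were seeded at 10000 cells/well. They received 8-point compound dilutions (0.5% DMSO final) for 24 hours at 37° C. IRF-driven SEAP was read with Quanti-Blue at OD 620 nm after 30 minutes, and EC50 came from four-parameter fits.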

in vitro = settings: human, Caco-2, pH 7.4
Procedure: Cellular Permeability Measurements
Caco-2 cells were obtained from Leibniz Institute DSMZ-German Collection of Microorganisms and Cell Cultures (Braunschweig, Germany) and cultured in DMEM (Dulbecco's modified Eagle medium) containing (in final concentrations) 10% FCS (fetal calf serum), 1% NEAA (non-essential amino acids), 2 mM Glutamin, 100 U/mL Penicillin and 100 μg/mL Streptomycin. Caco-2 cells were seeded either onto 24-well Transwell inserts (Corning, #3379) for bidirectional permeability assays at a density of 160,000 cells/cm^2 and cultured for 3 weeks, with media change on every second day.
For bidirectional permeability assays 10 mM DMSO stock solutions were diluted in transport buffer (final concentrations: 128.13 mM NaCl, 5.36 mM KCl, 1 mM MgSO4, 1.8 mM CaCl2, 4.17 mM NaHCO3, 1.19 mM Na2HPO4, 0.41 mM NaH2PO4, 15 mM 2-[4-(2-hydroxyethyl)piperazin-1-yl]ethanesulfonic acid (HEPES), 20 mM glucose, pH 7.4) containing 0.25% bovine serum albumin to a final concentration of 10 μM of the test compounds and added to the apical or basal compartment. Cells were incubated with the compounds for up to 2 h. Samples from the opposite compartment were taken at different timepoints.
Compound concentrations in the compartments were quantified using a RapidFire-based high-throughput HPLC/MS/MS system (high performance liquid chromatography/mass spectrometry; Bio-Cius) that was customized to a fully automated and flexible platform, termed RIAS. In this modified setup, the sample was aspirated by a vacuum pump into a 10 μL sample loop for 250 ms and flushed onto a C4 cartridge (3.8 μL bed volume; Bio-Cius) with the aqueous mobile phase (99.9% water, 0.09% formic acid, and 0.01% TFA; flow rate 1.5 mL/min). Prior to bioanalysis samples were spiked with internal standard solution and diluted with acetonitrile (ACN) for protein precipitation. Measurement was operated in multiplereaction monitoring (MRM) mode. Quantification was performed using external calibration. A solid-phase extraction step retained the analyte for 3000 ms while interfering matrix (e.g., buffer components) was removed. With a simple step gradient, the analyte was back-eluted from the cartridge for 3,000 ms with the organic mobile phase (99.9% acetonitrile/methanol [1:1, v:v], 0.09% formic acid, and 0.01% TFA) and flushed into the mass spectrometer at a flow rate of 1.25 mL/min. Afterwards, the cartridge was re-equilibrated with the aqueous mobile phase for 500 ms (flow rate 1.5 mL/min).
Apparent permeability coefficients in the apical to basal direction (Papp,AB) and in the basal to apical direction (Papp,BA) and efflux ratios were calculated as follows: Papp,AB=QAB/(C0·s·t) Papp,BA=QBA/(C0·s·t) Efflux ratio=Papp,BA/Papp,AB
where Q is the amount of compound recovered in the receiver compartment after the incubation time t, C0 the initial compound concentration given to the donor compartment, and s the surface area of the Transwell inserts. […] In addition, transepithelial electrical resistance (TEER) values are measured for each plate before the permeability assay, and total recovery in donor and receiver compartments was determined for each compound.

STING R293Q-variant = biological target: T2, STING R293Q-variant (Homo sapiens, UniProt Q86WV6, H232R/R293Q); experiment: IRF-inducible SEAP reporter assay in THP1-Blue ISG cells, STING R293Q-variant; format: cell-based; settings: 24 hours incubation
T2 construct: expressed in transfected cells; host or cells: THP1-Blue ISG hSTING KO clone, retroviral MSCV-ires-GFP-Blasti
T2 sequence (Q86WV6 whole entry H232R/R293Q): as the sequence (Q86WV6 whole entry R71H/G230A/H232R/R293Q) above, with H71R, A230G counted along it
Summary of the method: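 THP1-Blue ISG cells with endogenous STING knocked out (CRISPR) and retrovirally re-expressing human STING R293Q; 10000 cells/well, compound 24 h at 37 °C, 0.5% DMSO final. SEAP read by Quanti-Blue (30 min, OD 620 nm); EC50 and Hill slope from 8-point four-parameter fit.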

STING AQ-variant = biological target: T3, STING AQ-variant (Homo sapiens, UniProt Q86WV6, G230A/H232R/R293Q); experiment: IRF-inducible SEAP reporter assay in THP1-Blue ISG cells, STING AQ-variant; format: cell-based; settings: 24 hours incubation
T3 construct: expressed in transfected cells; host or cells: THP1-Blue ISG hSTING KO clone, retroviral MSCV-ires-GFP-Blasti
T3 sequence (Q86WV6 whole entry G230A/H232R/R293Q): as the sequence (Q86WV6 whole entry R71H/G230A/H232R/R293Q) above, with H71R counted along it
Description: In Vitro Cytokine Induction Measured Via Activation of an Interferon Regulatory Factor Inducible Reporter Gene
Activation of the STING protein expressed in cell lines results in an increase of interferon production. By the stable integration of an interferon regulatory factor (IRF)-inducible SEAP gene (secreted embryonic alkaline phosphatase) reporter construct the functional interferon signaling pathway can be monitored. Using Invivogen's THP1-Blue™ ISG colorimetric enzyme assay and a suitable optical density (OD) reader the activity of SEAP can be detected and quantified. This technique could be used to characterize pharmacological modification of the STING pathway.
Several single nucleotide polymorphisms have been identified in the human STING gene. To determine the activity of the above described compounds, THP1-Blue™ ISG reporter cell lines expressing the different human STING variants have been generated. To do so, the endogenous human STING was first deleted using the CRISPR/CAS9 system: THP1-Blue ISG cells were electroporated with ALL-IN-ONE CRISPR plasmids targeting the STING gene (purchased from Sigma encoding the gRNA and GFP as a reporter gene for successful transduction). GFP positive cells then were sorted 24 h post transfection and expanded. Cells were then dispersed in semisolid methocel medium to allow single cell clone isolations. Clones were then screened for cGAMP responsiveness using the Quanti-Blue™ reporter assay. Non-responsive clones were subsequently analysed for STING loss by western blotting and sequencing of the STING locus.
For the overexpression of the human STING variants, a confirmed THP1-Blue™ ISG hSTING KO clone was transduced with individual retroviral plasmids (MSCV-ires-GFP-Blasti) encoding the allelic variants of hSTING (WT (H232R), HAQ, R232H, AQ and R293Q). Transduced cells were sorted for different levels of GFP fluorescence and STING allele expression was analysed by western blot.
Measurements of SEAP activity were performed in THP1-Blue™ ISG cells stably expressing the different human STING isoforms and the IRF-inducible SEAP reporter construct. Cells were cultivated in RPMI1640 medium with 10% fetal calf serum, 50 μg/ml Penicillin-Streptomycin, 100 μg/ml Zeocin, and 100 μg/ml Normocin in a 37°, 95% humidity and 5% CO2 incubator.
In preparation for the assay, the cells were distributed into the assay plates with a density of 10000 cells/15 μL per well. Compounds were prepared by an 8 point serial dilution in 50% aqueous DMSO and a final dilution step into medium to ensure a final DMSO concentration of 0.5% in the assay. 5 μL of diluted compounds were added to the plates, followed by a 24 hours incubation at 37° C.
At the day of the assay, 75 μl per well of Quanti-Blue™ reagent was added to all wells of the plate and the plate was incubated another 30 minutes at 37° C. The OD at 620 nm was measured on the EnVision reader (PerkinElmer).
EC50 values and Hill slopes were derived from 8-point four parametric non-linear curve fittings with the Megalab software (Boehringer Ingelheim) using the OD at 620 nm.
Data of EC50 values can be found in tables 2a-2e.
Data of EC50 values on STING AQ-variant can be found in table 2e: […]

STING H232R-variant = biological target: T4, STING H232R-variant (Homo sapiens, UniProt Q86WV6, H232R); experiment: IRF-inducible SEAP reporter assay in THP1-Blue ISG cells, STING H232R-variant; format: cell-based; settings: STING H232R-variant (WT), 24 hours incubation
T4 construct: expressed in transfected cells; host or cells: THP1-Blue ISG hSTING KO clone, retroviral MSCV-ires-GFP-Blasti
T4 sequence (Q86WV6 whole entry H232R): as the sequence (Q86WV6 whole entry R71H/G230A/H232R/R293Q) above, with H71R, A230G, Q293R counted along it
Summary of the method: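 THP1-Blue ISG cells with endogenous STING deleted by CRISPR and retrovirally re-expressing human STING H232R; 8-point compound dilutions, 0.5% DMSO final, 24 h at 37 °C. SEAP read by Quanti-Blue, 30 min, OD 620 nm; EC50 and Hill slope from four-parameter fit.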

STING R232H-variant = biological target: T5, STING R232H-variant (Homo sapiens, UniProt Q86WV6); experiment: IRF-inducible SEAP reporter assay in THP1-Blue ISG cells, STING R232H-variant; format: cell-based; settings: 24 hours incubation
T5 construct: expressed in transfected cells; host or cells: THP1-Blue ISG hSTING KO clone, retroviral MSCV-ires-GFP-Blasti
T5 sequence (Q86WV6 whole entry, stated change not applied): as the sequence (Q86WV6 whole entry R71H/G230A/H232R/R293Q) above, with H71R, A230G, R232H, Q293R counted along it
Summary of the method: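 THP1-Blue ISG cells, endogenous STING knocked out by CRISPR and re-expressing hSTING R232H, with IRF-inducible SEAP reporter. Treated 24 h at 37 °C with 8-point compound dilutions (0.5% DMSO final); SEAP read by Quanti-Blue OD 620 nm after 30 min. EC50 from four-parameter fit.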

| solubility kinetic at 24 h [2] [µg/mL] | EC50 (STING HAQ-variant) [µM] | Papp A→B at 10 μM (in vitro) [×10⁻⁶ cm/s] | efflux ratio at 10 μM (in vitro) | EC50 (STING R293Q-variant) [µM] | EC50 (STING AQ-variant) [µM] | EC50 (STING H232R-variant) [µM] | EC50 (STING R232H-variant) [µM] | SMILES | thermal shift (ΔTm) [1] [K] |
| --- | --- | --- | --- | --- | --- | --- | --- | --- | --- |
| 51 (≈ 104 µM) | 6.5 |  |  |  |  |  |  | Cc1cccc2c(-c3cccc4nn(C)cc34)nn(-c3ccc(N4CCC(c5nn[nH]n5)CC4)nc3)c12 [Example #19, 2′,7-dimethyl-1-{6-[4-(2H-1,2,3,4-tetrazol-5-yl)piperi-din-1-yl]pyridin-3-yl}-1H,2′H-3,4′-biindazole] | 21 |
| 87 (≈ 160 µM) | 0.08 |  |  |  |  |  |  | Cc1c(-c2cnn(C)c2)ccc2c(-c3cccc4nn(C)cc34)nn(-c3ccc(N4CC5C(C4)C5C(=O)O)nc3)c12 (stereo not shown) [Example #28, 3-{5-[2′,7-dimethyl-6-(1-methyl-1H-pyrazol-4-yl)-1H,2′H-[3,4′-biindazol]-1-yl]pyridin-2-yl}-3-azabicy-clo[3.1.0]hexane-6-carbox-ylic acid] | 27 |
| 75 (≈ 148 µM) | 4.9 | 19 | 0.6 |  |  |  |  | Cc1cccc2c(-c3cccc4cnc(N(C)C)cc34)nn(-c3ccc(N4CCC(C(=O)O)CC4)nc3)c12 [Example #63, 1-(5-{3-[3-(dimethyla-mino)isoquinolin-5-yl]-7-methyl-1H-indazol-1-yl}pyridin-2-yl)piperidine-4-carboxylic acid] | 19 |
| 74 (≈ 154 µM) | 16.1 | 18 | 1.2 |  |  |  |  | Cc1cc(C)c2c(c1)c(-c1cccc3nn(C)cc13)nn2-c1ccc(N2CCC(C(=O)O)CC2)nc1 [Example #70, 1-(5-{2′,5,7-trimethyl-1H,2′H-[3,4′-biindazol]-1-yl}pyridin-2-yl)piperidine-4-carboxylic acid] |  |
| 60 (≈ 124 µM) | 0.9 |  |  | 0.6 | 0.7 | 0.2 | 0.2 | Cn1cc2c(-c3nn(-c4ccc(N5CC6C(C5)C6C(=O)O)nc4)c4c(Cl)cccc34)cccc2n1 (stereo not shown) [compound 26, 3-(5-{7-chloro-2′-methyl-1H,2′H-[3,4′-biindazol]-1-yl}pyridin-2-yl)-3-azabicy-clo[3.1.0]hexane-6-carbox-ylic acid] |  |
| 63 (≈ 131 µM) | 0.8 |  |  | 0.6 | 0.7 | 0.2 | 0.6 | COc1cccc2c(-c3cccc4nn(C)cc34)nn(-c3ccc(N4CC5C(C4)C5C(=O)O)nc3)c12 (stereo not shown) [compound 29, 3-(5-{7-methoxy-2′-methyl-1H,2′H-[3,4′-biindazol]-1-yl}pyridin-2-yl)-3-azabicyclo[3.1.0]hex-ane-6-carboxylic acid] | 22 |
| 42 (≈ 92.4 µM) | 6.1 | 14 | 0.9 |  |  |  |  | Cc1cccc2c(-c3cccc4c3OCO4)nn(-c3ccc(N4CC5C(C4)C5C(=O)O)nc3)c12 (stereo not shown) [compound 30, 3-(5-[3-(2H-1,3-benzodi-oxol-4-yl)-7-methyl-1H-in-dazol-1-yl]pyridin-2-yl}-3-azabicyclo[3.1.0]hexane-6-carboxylic acid] | 20 |
| 84 (≈ 170 µM) | 6.8 |  |  |  |  |  |  | Cc1cccc2c(-c3cccc4nn(C)cc34)nn(-c3ccc(N4CCN(CC(=O)O)C(=O)C4)nc3)c12 [compound 58, 2-[4-(5-{2′,7-dimethyl-1H,2′H-[3,4′-biindazol]-1-yl}pyridin-2-yl)-2-oxopi-perazin-1-yl]acetic acid] | 23 |
| 49 (≈ 106 µM) | 3.1 | 11 | 1.2 |  |  |  |  | Cc1cccc2c(-c3cccc4cnccc34)nn(-c3ccc(N4CCC(C(=O)O)CC4)nc3)c12 [compound 62, 1-{5-[3-(isoquinolin-5-yl)-7-methyl-1H-indazol-1-yl]pyridin-2-yl}piperidine-4-carboxylic acid] | 20 |
| 70 (≈ 146 µM) | 1.4 | 14 | 1 | 0.7 | 0.7 | 0.3 | 0.3 | Cc1cc(C)c2c(c1)c(-c1cccc3nn(C)cc13)nn2-c1ccc(N2CC3C(C2)C3C(=O)O)nc1 (stereo not shown) [compound 69, 3-(5-{2′,5,7-trimethyl-1H,2′H-[3,4′-biindazol]-1-yl}pyridin-2-yl)-3-azabicy-clo[3.1.0]hexane-6-car-boxylic acid] |  |
| 67 (≈ 135 µM) | 0.6 |  |  |  |  |  |  | Cc1c(CO)ccc2c(-c3cccc4nn(C)cc34)nn(-c3ccc(N4CC5C(C4)C5C(=O)O)nc3)c12 (stereo not shown) [compound 71, 3-{5-[6-(hydroxymethyl)-2′,7-dimethyl-1H,2′H-[3,4′-biindazol]-1-yl]pyri-din-2-yl}-3-azabicy-clo[3.1.0]hexane-6-car-boxylic acid] | 29 |
